{
  "source": "patent US20210346312A1",
  "about": "“Flat Product for Microbiological Sanitation of the Urogenital Tract” (Tecuro Medical GmbH, priority 2018, published 2021)",
  "test_system": "Reconstituted human 3D EpiVaginal models",
  "test": "Cytotoxicity test (MTT assay, based on DIN ISO 10993-5)",
  "assay_type": "cell-based",
  "settings": "positive control, 1%, typical value",
  "procedure": "To determine the compatibility of a planar product for treatment of the urogenital tract, the Cytotoxicity Test described below can be used. It is based on the standard DIN ISO 10993-5.\nReconstituted human 3D EpiVaginal models (e.g., MatTek) are used. To this end, an element of 6 mm in diameter from a planar product according to the invention is topically applied to the 3D EpiVaginal skin models and incubated on the models for 3 and 18 hours. Skin models treated with sterile water are used as negative control, and skin models treated with the […] surfactant Triton X-100 (1%) are used as positive control. The vitality of the skin models is evaluated in the MTT assay (3-(4,5-dimethylthiazol-2-yl)-2,5-diphenyltetrazolium bromide) (see Stockert et al. Acta Histochemica 120: 159-167 (2018), doi: 10.1016/j.acthis.2018.02.005; Chacon et al. In Vitro Methods in Pharmaceutical Research, ISBN 9780080534602 and https://en.wikipedia.org/wiki/MTT_assay). This involves setting the vitality value of the negative control to 100%. […] According to the invention, what is considered to be an acceptable value is typically a vitality of >80% after 18 h.",
  "data": [
    {"substance": "Triton X-100", "values": [
      {"measurement": "vitality after 3 h of incubation", "setting": "3 h", "result": 25, "unit": "%"},
      {"measurement": "vitality after 18 h", "setting": "18 h", "result": "less than 10%"}
    ]}
  ]
}
